Source: PMC2885805 (Pesticide biochemistry and physiology, 2010)

Experiments:
[1] = tested on: desensitizing GluCl (cockroach neurons); assay: whole-cell patch clamp, glutamate-induced chloride current; format: cell-based, Periplaneta americana; details: peak current measured; cited from earlier work
[2] = tested on: non-desensitizing GluCl (cockroach neurons); assay: as above; format: cell-based, Periplaneta americana; details: cited from earlier work
cockroach GABA receptor = assay: whole-cell patch clamp, GABA-induced chloride current; format: cell-based, Periplaneta americana; details: resting receptor; holding potential −60 mV, symmetric chloride; cited from earlier work
rat GABAA receptor = assay: as above; format: cell-based; details: closed channel; rat dorsal root ganglion neurons; cited from earlier work
[3] = tested on: desensitizing GluCl (cockroach neurons); assay: whole-cell patch clamp, glutamate-induced chloride current; format: cell-based, Periplaneta americana; details: 30 μM picrotoxinin; desensitizing component

SMILES | IC50 [1] [µM] | IC50 ([2]; steady-state current measured, use-dependent open-channel block) [µM] | IC50 (cockroach GABA receptor) [µM] | IC50 (rat GABAA receptor) [µM] | % inhibition at 30 μM [3] [%] | IC50 ([2]; non-desensitizing component) [µM]
N#Cc1nn(-c2c(Cl)cc(C(F)(F)F)cc2Cl)c(N)c1[S+]([O-])C(F)(F)F (stereo not drawn) [fipronil] | 0.801 ± 0.207 | 0.01 ± 0.0009 | 0.028 | 1.66 |  | 
C=C(C)[C@@H]1[C@H]2OC(=O)[C@@H]1[C@]1(O)C[C@H]3O[C@]34C(=O)O[C@H]2[C@]14C [picrotoxinin] |  |  |  |  | 8.2 ± 2.9 | 4.1 ± 1
